Here are results for four substances from patent publication US12685780B2, “Immune inducer containing polynucleotide-peptide conjugate and pharmaceutical composition containing same” (The University of Kitakyushu, priority 2020, dated 2026).

One data set addresses T1, MHC-1 on DC2.4 cells (Mus musculus, UniProt P01901).
T1 construct: endogenous in cells; host or cells: DC2.4 murine dendritic cell line
T1 sequence (P01901 22-369): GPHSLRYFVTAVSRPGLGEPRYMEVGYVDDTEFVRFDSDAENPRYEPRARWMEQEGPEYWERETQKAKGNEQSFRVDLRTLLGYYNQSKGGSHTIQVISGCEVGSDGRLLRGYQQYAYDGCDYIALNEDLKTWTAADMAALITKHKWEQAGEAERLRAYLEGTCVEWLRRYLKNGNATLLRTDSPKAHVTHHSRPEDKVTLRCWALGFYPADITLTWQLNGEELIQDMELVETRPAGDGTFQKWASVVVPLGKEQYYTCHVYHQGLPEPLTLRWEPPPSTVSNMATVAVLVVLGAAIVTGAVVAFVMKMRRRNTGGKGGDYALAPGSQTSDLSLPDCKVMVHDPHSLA
T1 sequence (P01887 21-119 partner): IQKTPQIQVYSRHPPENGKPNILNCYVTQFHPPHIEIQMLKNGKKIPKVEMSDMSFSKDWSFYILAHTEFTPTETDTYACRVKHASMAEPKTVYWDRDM
Put plainly: Competitive inhibition of binding of OVA peptide 1 to MHC-1 on DC2.4 cells. The arrangement: species or system murine. Particulars: peptide 2.5 μg/mL against OVA peptide 1 0.25 μg/mL, on ice 30 minutes. As for the experimental part: Murine dendritic cell line, DC2.4 cells, were detached from a dish, and suspended in 1.5 mL tubes at a concentration of 1.5×10^5 cells per […] of PBS.

Data set [1] has as its system antigen-retaining splenocytes (TRP2-9). Put plainly: Induction of cytotoxic T lymphocytes in mice (in vivo CTL assay, flow cytometry), mTRP2 antigen. The arrangement: species or system C57BL/6 mice. Conditions: antigen TRP2-9. (In general: In flow cytometry, cells or beads pass a laser one at a time.)
Procedure: A CpG DNA(S)-peptide conjugate as an antigen was intracutaneously administered to mice (C57BL/6 mice (♂, 7 weeks old)). The dose of a CpG DNA(S)-peptide conjugate was 50, 200 or 1000 ng per mouse in terms of peptide (about 0.4, 1.7 or 8.5 μg in terms of CpG30(S)). After one week of administration, splenocytes were isolated from those mice of the same strain not receiving administration, and divided into two aliquots of 2.0×10^7 cells/mL. To one aliquot, a peptide as an antigen was added to a concentration of 10 μg/mL, and the mixture was left to stand for 90 minutes to prepare antigen-retaining splenocytes. The other aliquot of splenocytes with no peptide added was regarded as non-antigen-retaining splenocytes. Both of the antigen-retaining splenocytes and the non-antigen-retaining splenocytes were fluorescently modified with 5,6-carboxyfluorescein succinimidyl ester (CFSE). During this process, the concentration of CFSE was varied such that the fluorescence intensity of the antigen-retaining splenocytes (CFSE: 1 μm) was higher than that of the non-antigen-retaining splenocytes (CFSE: 0.1 μm).
After the lapse of 24 hours from the tail vein administration, splenocytes were isolated from the mice, and evaluated for induced antigen-specific cytotoxic T lymphocyte activity through flow cytometrically quantifying the percentages of antigen-retaining and non-antigen-retaining splenocytes to determine the amount of decrease in antigen-retaining splenocytes. For comparison's sake, other mice were administered PBS (phosphate-buffered saline) instead of a CpG DNA(S)-peptide conjugate, and were regarded as control groups. The control groups were subjected to flow cytometric analysis under the same conditions.
The dose of the conjugates administered was 200 ng per mouse in terms of peptide.
The second administration was performed after 10 days from the first administration. Both of the two doses were 200 ng per mouse in terms of peptide.

“Also recorded” adds a separate entry of the source.

For “C-TRP2-9: CSVYDFFVWL (SEQ ID NO: 31); cysteine added to the N-terminus of TRP2-9 (C-TRP2-9)”, the “Inhibitory activity against binding of OVA peptide 1 to MHC class I molecules” value in the data set with MHC-1 on DC2.4 cells is “no inhibitory activity was observed”. As to “CpG20(S)a-mTRP2pep9: CpG20(S)a (SEQ ID NO: 1) conjugated to peptide C-TRP2-8 (CVYDFFVWL) (DNA atcgactctcgagcgttctc; oligonucleotide-peptide conjugate; K3)”, in data set [1] (dose not stated), the “CTL-inducing ability (decrease in antigen-retaining splenocytes)” value was “high CTL-inducing ability”.

For the substance “CpG30(S)a-mTRP2pep9: CpG30(S)a (SEQ ID NO: 6, phosphorothioate) conjugated via disulfide spacer to peptide C-TRP2-8 (CVYDFFVWL) (DNA gagcgttctcatcgactctcgagcgttctc; phosphorothioate; disulfide spacer conjugate; K3-30(a))”, the “CTL-inducing ability (decrease in antigen-retaining splenocytes)” value in data set [1] (200 ng per mouse in terms of peptide, intracutaneous, single dose) is “marked decrease in antigen-retaining splenocytes; also recorded: can induce potent CTL activity”; in data set [1] (dose not stated), “high CTL-inducing ability”. Moreover, the “Dose dependency of CTL-inducing ability” value in data set [1] (doses of 50, 200 or 1000 ng per mouse in terms of peptide) was “dose dependency”. With “C-TRP2-8: CVYDFFVWL (SEQ ID NO: 32); cysteine added to N-terminus of amino acid residues 181 to 188 of mTRP2 (C-TRP2-8)”, in the data set with MHC-1 on DC2.4 cells, the “Decrease of average fluorescence intensity (OVA peptide 1-MHC-1 complexes on DC2.4 cells)” value was 23%.
